Laboratory results published in patent US20120141586A1, “THROMBIN RECEPTOR ANTAGONIST AND CLOPIDOGREL FIXED DOSE TABLET” (priority 2009, published 2012).
“Also recorded” adds a separate entry of the source.

Experiments:
thrombin receptor = target: T1, thrombin receptor (Homo sapiens, UniProt P25116); details: cited from earlier work
T1 sequence (P25116 22-425): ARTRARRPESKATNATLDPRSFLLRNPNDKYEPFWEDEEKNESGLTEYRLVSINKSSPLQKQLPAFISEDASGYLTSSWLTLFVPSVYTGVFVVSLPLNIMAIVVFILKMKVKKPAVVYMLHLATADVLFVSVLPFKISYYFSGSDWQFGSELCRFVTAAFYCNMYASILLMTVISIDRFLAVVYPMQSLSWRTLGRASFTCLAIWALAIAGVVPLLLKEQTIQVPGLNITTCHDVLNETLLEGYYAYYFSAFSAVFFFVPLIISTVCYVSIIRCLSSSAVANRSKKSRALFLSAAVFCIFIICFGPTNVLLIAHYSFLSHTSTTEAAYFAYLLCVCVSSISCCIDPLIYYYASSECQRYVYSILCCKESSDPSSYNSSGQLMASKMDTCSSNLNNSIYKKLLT

[1] = forced degradation data generated at Dr. Reddy's Lab; cited from earlier work
[2] = Compatibility studies between clopidogrel premix and 530348 bisulfate / free base
Excerpt: b. […] Clopidogrel is known to degrade under acidic and alkaline conditions. […] To test this hypothesis, the above studies were repeated in the presence of 530348 free base.

**Q.** With `CCOC(=O)N[C@@H]1CC[C@@H]2[C@@H](C1)C[C@H]1C(=O)O[C@H](C)[C@H]1[C@H]2/C=C/c1ccc(-c2cccc(F)c2)cn1` [SCH 530348 bisulfate] as the compound, how does the Selectivity (thrombin receptor) read?
**A.** good

**Q.** And the “Thrombin receptor antagonist activity (potency)” value (thrombin receptor)?
**A.** good

**Q.** With `CCOC(=O)N[C@@H]1CC[C@@H]2[C@@H](C1)C[C@H]1C(=O)O[C@H](C)[C@H]1[C@H]2/C=C/c1ccc(-c2cccc(F)c2)cn1` [SCH 530348, ethyl[(1R,3aR,4aR,6R,8aR,9S,9aS)-9-[(E)-2-[5-(3-fluorophenyl)-2-pyridinyl]ethenyl]dodecahydro-1-methyl-3-oxonaphtho[2,3-c]furan-6-yl]carbamate] as the compound, how does the Selectivity (thrombin receptor) read?
**A.** good

**Q.** What about the “Thrombin receptor antagonist activity (potency)” value (thrombin receptor) of the same compound?
**A.** good

**Q.** Which results are given for `COC(=O)[C@H](c1ccccc1Cl)N1CCc2sccc2C1` [clopidogrel]?
**A.** Susceptibility of clopidogrel to degradation [1]: susceptible to degradation upon exposure to heat, humidity, and oxygen; Extent of clopidogrel degradation ([2]; bisulfate salt compared to 530348 free base (FIG. 2)): greater in the presence of the bisulfate salt; Clopidogrel degradation ([2]; in the presence of 530348 bisulfate): significant degradation; also recorded: degrades
